From paper PMC11236999, “Antagonism of propofol anesthesia by alkyl-fluorobenzene derivatives” (Scientific Reports, 2024)
pIC50: −log10 of the molar value. Entries after “also recorded” stand apart in the source; their conditions may differ.

Key:
5 dpf larval zebrafish [1] = assay: Zebrafish behavioral model of anesthesia, spontaneous movement (SM); assay type: in vivo
Experimental: (§1) Figure 2 Screening of PFAL compounds for antagonism of anesthesia. PFAL compounds were screened in 5 dpf zebrafish for their ability to antagonize the anesthetic effects of propofol (panels a, b, c and d) as well as sevoflurane and isoflurane (panels e and f). Each dot represents the data collected from one fish. Spontaneous movement (SM) is the distance of spontaneous swimming in a 4 min period, and elicited movement (EM) is distance moved in 1 s after exposure to a tap stimulus. Both measures were scaled to same-day DMSO controls. […] Mean and 95% CI are shown for each data set. Statistical comparison with both DMSO (D) only (black asterisks) and anesthetic control (Ctrl, gray asterisks) groups are shown. Note that each DMSO comparison is to the DMSO only control (sample on the furthest left of each graph, and the anesthetic control comparisons are made within each anesthetic grouping as indicated by the bars along the x-axis of each graph. ns: P > 0.05, *: P ≤ 0.05, **: P ≤ 0.01, ***: P ≤ 0.001, ****: P ≤ 0.0001).
(§2) Behavioral experiments (screening, EC50 curves) were performed as previously reported. Antagonism after induction was conducted in a similar manner with different timepoints and solution changes as indicated. The DanioVision Observation Chamber (Noldus) and Ethovision XT16 software were used to track and record (1280 × 960 resolution at 25 frames per second) larval zebrafish (5 dpf) movement in glass 96-well plates (Zissner North America 3,600,500). All experiments were performed at 28 °C with the DanioVision Temperature Control Unit. Zebrafish were allowed to equilibrate in E3 and 2% DMSO (with or without drug) for 10 min before being placed in the observation chamber for 22 min of recording. Two different endpoints were used to assess depth of anesthesia: spontaneous movement (SM) and elicited movement (EM). In these measures, fish movement was considered to be non-anesthetized. During each observation, fish were given time to acclimate to the chamber, and minutes 15–19 of the recording were used for analysis of SM. An EM response using the Daniovision tapping device (8 out of 8 intensity, movement response measured for 1 s after stimulus) was also measured at the end of the SM observation period. All recordings were scrutinized by a blind observer for technical errors in tracking to ensure accuracy of zebrafish detection and inaccurate tracking was excluded from further analysis. Toxicity was measured in separate experiments by exposing larvae to compounds for 30 min, transferring to fresh E3, and then observing mortality after exposure. […]

[2] = biological target: T1, horse spleen apoferritin (HSAF) (Equus caballus, UniProt P02791); assay: 1-Aminoanthracene (1-AMA) competition fluorescence assay; assay type: binding
T1 construct: model protein HSAF (horse spleen apoferritin); purchased Sigma-Aldrich; host or cells: horse spleen (tissue-derived)
T1 sequence (P02791 2-175 limits assumed): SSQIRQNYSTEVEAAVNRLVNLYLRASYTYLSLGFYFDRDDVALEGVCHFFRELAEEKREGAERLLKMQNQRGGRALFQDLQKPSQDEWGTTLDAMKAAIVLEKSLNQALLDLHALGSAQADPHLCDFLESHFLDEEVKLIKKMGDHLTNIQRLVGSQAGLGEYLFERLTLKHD

5 dpf larval zebrafish [3] = assay: Zebrafish behavioral model of anesthesia, elicited movement (EM, tap stimulus); assay type: in vivo
Experimental: as §1, §2

tadpoles = system: tadpoles; set-up: method as in PMID 25799399; details: cited from earlier work
[4] = system: propofol-sensitive GABAAR; set-up: method as in PMID 25799399; details: cited from earlier work
[5] = biological target: T1, horse spleen apoferritin (HSAF); set-up: method as in doi:10.1055/s-0040-1707287; details: cited from earlier work
zebrafish = system: zebrafish; set-up: method as in PMID 33355437; details: cited from earlier work
5 dpf zebrafish = assay: Antagonism of anesthesia after induction (sequential addition); assay type: in vivo; details: propofol 3 μM for 10 min, then propofol 3 μM plus 30 μM compound
Experimental: In the above studies, the anesthetic and PFAL compounds were co-administered to the fish simultaneously.
Figure 5 Further Characterization of Propofol Antagonism with Compounds 9 and 10. a and b 5 dpf zebrafish (n = 36) were first anesthetized with 3 μM propofol and then 30 μM of either compound 9 or 10 was added. Between minutes 5 and 10 there is a small gap in the data during which the propofol solution was removed and a solution containing propofol and PFAL compound was added. […] The mean and 95% CI is shown for each data point in all panels.
Behavioral experiments (screening, EC50 curves) were performed as previously reported. Antagonism after induction was conducted in a similar manner with different timepoints and solution changes as indicated. The DanioVision Observation Chamber (Noldus) and Ethovision XT16 software were used to track and record (1280 × 960 resolution at 25 frames per second) larval zebrafish (5 dpf) movement in glass 96-well plates (Zissner North America 3,600,500). […] An EM response using the Daniovision tapping device (8 out of 8 intensity, movement response measured for 1 s after stimulus) was also measured at the end of the SM observation period. […] Toxicity was measured in separate experiments by exposing larvae to compounds for 30 min, transferring to fresh E3, and then observing mortality after exposure.

[6] = PFAL compound alone at 10 and 30 μM, versus DMSO control

## CC(C)c1cccc(C(C)C)c1F [Compound 9, 1,3-diisopropyl-2-fluorobenzene]
5 dpf larval zebrafish [1]; 30 μM PFAL compound co-administered with propofol (0.3, 1, 5 μM), screen
  Antagonism of propofol via SM: showed antagonism of propofol; also recorded: statistically significant antagonism
5 dpf larval zebrafish [1]; 30 μM PFAL compound, propofol 5 μM
  Antagonism of propofol via SM at 5 μM propofol: antagonized propofol
5 dpf larval zebrafish [1]; Danio rerio, 120 h, 5 dpf zebrafish exposed to 3 μM propofol, Fig. 5d, read-out: IC50 (antagonism of propofol)
  pIC50: 4.43
5 dpf larval zebrafish [1]; [6]
  Spontaneous movement (SM), compound alone: increased SM
5 dpf larval zebrafish [1]; propofol plus 30 μM compound, Fig. 4a
  Increase of propofol EC50 versus propofol alone, spontaneous movement: ~ tenfold
[2]; 15 μM 1-AMA, 15 μM HSAF dimer, ligand 1 to 125 μM
  Inhibition of 1-AMA binding to HSAF: most potent inhibitors of 1-AMA binding
[2]; Fig. 6b
  Shape of IC50 curve for 1-AMA displacement: incomplete inhibition of 1-AMA binding
5 dpf larval zebrafish [3]; [6]
  Elicited movement (EM), compound alone: increased EM
5 dpf larval zebrafish [3]; propofol EC50 curves (EM) at various concentrations of the compound, Fig. S6
  Schild-type analysis with EM: no such relationship of antagonism was observed
tadpoles
  Antagonism of propofol in tadpoles: antagonize propofol
[4]
  Modulation of a propofol-sensitive GABAAR: no significant modulation
[5]
  Binding to the anesthetic site of HSAF: binds to this site
zebrafish
  Antagonism of propofol in zebrafish: antagonize propofol
5 dpf zebrafish
  Reversal of established propofol immobility: rapid reversal of propofol immobility
